In PubChem BioAssay AID1259407 (Chemical Carcinogenesis Research Information System (CCRIS), 2018):
The source made the active and inactive calls. No rule for the calls is given here.

System: CCRIS mutagenicity, Ames/micronucleus/aberration tests
Assay: CCRIS mutagenicity studies
[1] = Test System: AMES SALMONELLA TYPHIMURIUM, Strain/Indicator: TA98, Metabolic Activation: NONE, Method: STANDARD PLATE
[2] = Test System: AMES SALMONELLA TYPHIMURIUM, Strain/Indicator: TA100, Metabolic Activation: NONE, Method: STANDARD PLATE

O=S1OCC2C(CO1)C1(Cl)C(Cl)=C(Cl)C2(Cl)C1(Cl)Cl (stereo unspecified)
mutagenic call (End Point: IN VITRO CHROMOSOMAL ABERRATIONS, Test System: HUMAN PERIPHERAL BLOOD LYMPHOCYTES, Metabolic Activation: NONE): active; positive (structural changes)
mutagenic call (End Point: In vitro chromosomal aberrations, Test System: Human (one male) lymphocytes, Metabolic Activation: None): inactive; negative. (200 ug/ml was toxic to the cells.)
mutagenic call (End Point: In vitro chromosomal aberrations, Test System: Human (one male) lymphocytes, Metabolic Activation: Rat, Liver, S-9): inactive; negative. (200 ug/ml was toxic to the cells.)
mutagenic call (End Point: In vitro chromosomal aberrations, Test System: Human lymphocytes, Metabolic Activation: None): active; positive (structural changes and ploidy)
mutagenic call (Test System: AMES SALMONELLA TYPHIMURIUM, Strain/Indicator: TA97A, Metabolic Activation: NONE, Method: PREINCUBATION): active; positive
mutagenic call (Test System: AMES SALMONELLA TYPHIMURIUM, Strain/Indicator: TA97A, Metabolic Activation: NONE, Method: STANDARD PLATE): inactive; negative
mutagenic call (Test System: AMES SALMONELLA TYPHIMURIUM, Strain/Indicator: TA97A, Metabolic Activation: RAT, CECAL CELL FREE EXTRACT, Method: STANDARD PLATE): inactive; negative
mutagenic call (Test System: AMES SALMONELLA TYPHIMURIUM, Strain/Indicator: TA97A, Metabolic Activation: RAT, LIVER, S-9, AROCLOR 1254, Method: STANDARD PLATE): inactive; negative
mutagenic call (Test System: AMES SALMONELLA TYPHIMURIUM, Strain/Indicator: TA97A, Metabolic Activation: RAT, LIVER, S-9, PHENOBARBITAL, Method: PREINCUBATION): active; positive
mutagenic call (Test System: AMES SALMONELLA TYPHIMURIUM, Strain/Indicator: TA97A, Metabolic Activation: RAT, LIVER, S-9, PHENOBARBITAL, Method: STANDARD PLATE): inactive; negative
mutagenic call (Test System: AMES SALMONELLA TYPHIMURIUM, Strain/Indicator: TA98, Metabolic Activation: HAMSTER, LIVER, S-9, AROCLOR 1254 (10%), Method: PREINCUBATION): inactive; negative
mutagenic call (Test System: AMES SALMONELLA TYPHIMURIUM, Strain/Indicator: TA98, Metabolic Activation: NONE, Method: PREINCUBATION): inactive; negative
mutagenic call [1]: inactive; negative
mutagenic call (Test System: AMES SALMONELLA TYPHIMURIUM, Strain/Indicator: TA98, Metabolic Activation: RAT, CECAL CELL FREE EXTRACT, Method: STANDARD PLATE): inactive; negative
mutagenic call (Test System: AMES SALMONELLA TYPHIMURIUM, Strain/Indicator: TA98, Metabolic Activation: RAT, LIVER, S-9, AROCLOR 1254 (10%), Method: PREINCUBATION): inactive; negative
mutagenic call (Test System: AMES SALMONELLA TYPHIMURIUM, Strain/Indicator: TA98, Metabolic Activation: RAT, LIVER, S-9, AROCLOR 1254, Method: STANDARD PLATE): inactive; negative
mutagenic call (Test System: AMES SALMONELLA TYPHIMURIUM, Strain/Indicator: TA98, Metabolic Activation: RAT, LIVER, S-9, PHENOBARBITAL, Method: PREINCUBATION): inactive; negative
mutagenic call (Test System: AMES SALMONELLA TYPHIMURIUM, Strain/Indicator: TA98, Metabolic Activation: RAT, LIVER, S-9, PHENOBARBITAL, Method: STANDARD PLATE): inactive; negative
mutagenic call (Test System: AMES SALMONELLA TYPHIMURIUM, Strain/Indicator: TA100, Metabolic Activation: HAMSTER, LIVER, S-9, AROCLOR 1254 (10%), Method: PREINCUBATION): inactive; negative
mutagenic call (Test System: AMES SALMONELLA TYPHIMURIUM, Strain/Indicator: TA100, Metabolic Activation: NONE, Method: PREINCUBATION): inactive; negative
mutagenic call [2]: inactive; negative
mutagenic call (Test System: AMES SALMONELLA TYPHIMURIUM, Strain/Indicator: TA100, Metabolic Activation: RAT, CECAL CELL FREE EXTRACT, Method: STANDARD PLATE): inactive; negative
mutagenic call (Test System: AMES SALMONELLA TYPHIMURIUM, Strain/Indicator: TA100, Metabolic Activation: RAT, LIVER, S-9, AROCLOR 1254 (10%), Method: PREINCUBATION): inactive; negative
mutagenic call (Test System: AMES SALMONELLA TYPHIMURIUM, Strain/Indicator: TA100, Metabolic Activation: RAT, LIVER, S-9, AROCLOR 1254, Method: STANDARD PLATE): inactive; negative
mutagenic call (Test System: AMES SALMONELLA TYPHIMURIUM, Strain/Indicator: TA100, Metabolic Activation: RAT, LIVER, S-9, PHENOBARBITAL, Method: PREINCUBATION): inactive; negative
mutagenic call (Test System: AMES SALMONELLA TYPHIMURIUM, Strain/Indicator: TA100, Metabolic Activation: RAT, LIVER, S-9, PHENOBARBITAL, Method: STANDARD PLATE): inactive; negative
mutagenic call (Test System: AMES SALMONELLA TYPHIMURIUM, Strain/Indicator: TA102, Metabolic Activation: NONE, Method: STANDARD PLATE): inactive; negative
mutagenic call (Test System: AMES SALMONELLA TYPHIMURIUM, Strain/Indicator: TA102, Metabolic Activation: RAT, LIVER, S-9, PHENOBARBITAL, Method: PREINCUBATION): inactive; negative
mutagenic call (Test System: AMES SALMONELLA TYPHIMURIUM, Strain/Indicator: TA102, Metabolic Activation: RAT, LIVER, S-9, PHENOBARBITAL, Method: STANDARD PLATE): inactive; negative
mutagenic call (Test System: AMES SALMONELLA TYPHIMURIUM, Strain/Indicator: TA1535, Metabolic Activation: HAMSTER, LIVER, S-9, AROCLOR 1254 (10%), Method: PREINCUBATION): inactive; negative
mutagenic call (Test System: AMES SALMONELLA TYPHIMURIUM, Strain/Indicator: TA1535, Metabolic Activation: NONE, Method: PREINCUBATION): inactive; negative
mutagenic call (Test System: AMES SALMONELLA TYPHIMURIUM, Strain/Indicator: TA1535, Metabolic Activation: RAT, LIVER, S-9, AROCLOR 1254 (10%), Method: PREINCUBATION): inactive; negative
mutagenic call (Test System: AMES SALMONELLA TYPHIMURIUM, Strain/Indicator: TA1537, Metabolic Activation: HAMSTER, LIVER, S-9, AROCLOR 1254 (10%), Method: PREINCUBATION): inactive; negative
mutagenic call (Test System: AMES SALMONELLA TYPHIMURIUM, Strain/Indicator: TA1537, Metabolic Activation: NONE, Method: PREINCUBATION): inactive; negative
mutagenic call (Test System: AMES SALMONELLA TYPHIMURIUM, Strain/Indicator: TA1537, Metabolic Activation: RAT, LIVER, S-9, AROCLOR 1254 (10%), Method: PREINCUBATION): inactive; negative
mutagenic call (Test System: ESCHERICHIA COLI, Strain/Indicator: AB1157, Metabolic Activation: NONE, Method: PREINCUBATION): active; positive
mutagenic call (Test System: UDS Rat hepatocytes, Strain/Indicator: Primary hepatocytes. Thy incorp, Metabolic Activation: None, Method: Autoradiography): inactive; negative. (toxic at 51 ug/ml)

CC(C)(C)c1ccc(-c2ccc(N=O)cc2)cc1
mutagenic call [1]: active; positive
mutagenic call (Test System: AMES SALMONELLA TYPHIMURIUM, Strain/Indicator: TA98, Metabolic Activation: S-9, Method: STANDARD PLATE): active; positive
mutagenic call [2]: active; positive
mutagenic call (Test System: AMES SALMONELLA TYPHIMURIUM, Strain/Indicator: TA100, Metabolic Activation: S-9, Method: STANDARD PLATE): active; positive
